From patent US20250304576A1 (Cancer Research Technology Limited, priority 2022, published 2025)

Target: T1, CHUK (IKK alpha) (Homo sapiens, UniProt O15111)
T1 construct: purchased Life Technologies (assay performed by the vendor)
T1 sequence (O15111 1-745): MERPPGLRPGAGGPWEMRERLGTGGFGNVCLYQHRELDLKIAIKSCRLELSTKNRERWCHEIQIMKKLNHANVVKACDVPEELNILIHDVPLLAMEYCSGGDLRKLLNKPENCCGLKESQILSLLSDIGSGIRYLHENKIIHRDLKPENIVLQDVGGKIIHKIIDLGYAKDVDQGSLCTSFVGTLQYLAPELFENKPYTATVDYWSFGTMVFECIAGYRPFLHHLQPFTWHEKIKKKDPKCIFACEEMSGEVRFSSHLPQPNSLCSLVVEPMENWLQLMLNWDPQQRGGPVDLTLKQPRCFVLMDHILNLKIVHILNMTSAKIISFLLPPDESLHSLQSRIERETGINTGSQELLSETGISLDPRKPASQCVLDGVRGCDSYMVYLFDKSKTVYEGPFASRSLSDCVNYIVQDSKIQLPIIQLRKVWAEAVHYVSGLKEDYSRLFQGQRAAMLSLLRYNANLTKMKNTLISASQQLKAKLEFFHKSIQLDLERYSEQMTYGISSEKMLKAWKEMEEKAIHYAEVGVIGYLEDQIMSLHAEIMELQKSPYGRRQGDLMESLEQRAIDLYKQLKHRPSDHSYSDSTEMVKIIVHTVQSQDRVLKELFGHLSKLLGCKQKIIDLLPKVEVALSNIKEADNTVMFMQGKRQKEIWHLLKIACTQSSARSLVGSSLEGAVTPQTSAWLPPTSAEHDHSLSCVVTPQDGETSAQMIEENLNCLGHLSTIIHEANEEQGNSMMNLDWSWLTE
Assay: Adapta IKKα assay (TR-FRET ADP formation, Life Technologies)
Assay type: biochemical
Details: Adapta assay
Protocol: IKKα and IKKβ inhibitory activity was determined using three different assays: a dissociation enhanced ligand fluorescent immunoassay (DELFIA) based on the protocol of HTScan™ IKKβ Kinase Assay (Cell Signaling Technology, USA); an Adapta IKKα assay (performed by Life Technologies); a Z′-LYTE™ IKKβ assay (performed by Life Technologies).
The reaction was performed in low-volume white 384-well plates (Corning model 4512).
The test compounds were screened in 1% DMSO (final) in the well. For 10 point titrations, 3-fold serial dilutions were conducted from the starting concentration of 50 mM.
The 2× CHUK (IKK alpha) kinase was prepared in 50 mM HEPES pH 7.5, 0.01% BRIJ-35, 10 mM MgCl2 and 1 mM EGTA. The final 10 μL kinase mixture consisted of 50-250 ng CHUK (IKK alpha) in 32.5 mM HEPES pH 7.5, 0.005% BRIJ-35, 5 mM MgCl2 and 0.5 mM EGTA. No substrate was required, as the assay measures the ability of a compound to inhibit the kinase's intrinsic ATPase activity.
5 μL of 2× Kinase mixture was incubated with 2.5 μL of ATP solution diluted to a 4×working concentration in water, in the presence of 100 nL of 100× test compound in 100% DMSO and 2.4 μL of 30 mM HEPES buffer.
After 30-second plate shake and 1-minute centrifuge at 1000×g, the resulting kinase reaction was allowed to incubate for 1 hour at room temperature before 5 μL of Detection Mix was added.
The Detection Mix, previously prepared in TR-FRET Dilution Buffer, consisted of EDTA (30 mM), Eu-anti-ADP antibody (6 nM) and an Alexa Fluor™ 647 labelled ADP tracer. The Detection Mix contained the EC60 concentration of tracer for 5-150 μM ATP.
After 30-second plate shake and 1-minute centrifuge at 1000×g, the Detection Mix was allowed to equilibrate at room temperature for 1 hour. Then the plate was read using a fluorescence plate reader configured for Adapta™ TR-FRET and the data analysed.
ADP formation was determined by calculating the emission ratio from the assay well. Therefore, the emission ratio was calculated by dividing the intensity of the tracer (acceptor) emission by the intensity of the Eu (donor) emission at 615 nm as shown in the equation below.
The IKKα and IKKb figures quoted in italicised form are from the Adapta assay described above.

| SMILES | IC50 [nM] |
| --- | --- |
| CC(C)(C)OCC#Cc1c(-c2ccc3[nH]nc(N)c3c2)ccnc1N [Example 88, 5-(2-Amino-3-(3-(tert-butoxy)prop-1-yn-1-yl)pyridine-4-yl)-1H-indazol-3-amine] | 8 |
| Nc1cc(-c2cc(-c3ccccc3)c3[nH]nc(N)c3c2)ccn1 [Example 104, 5-(2-Aminopyridin-4-yl)-7-phenyl-1H-indazol-3-amine] | 3 |
| Nc1cc(-c2cc(-c3ccoc3)c3[nH]nc(N)c3c2)ccn1 [Example 129, 5-(2-Aminopyridin-4-yl)-7-(furan-3-yl)-1H-indazol-3-amine] | 5 |
| CC(C)(C)C#Cc1cc(-c2ccnc(N)c2)cc2c(N)n[nH]c12 [Example 137, 5-(2-Aminopyridin-4-yl)-7-(3,3-dimethylbut-1-yn-1-yl)-1H-indazol-3-amine] | 11 |
| CC(C)(O)C#Cc1cc(-c2ccnc(N)c2)cc2c(N)n[nH]c12 [Example 140, 4-(3-Amino-5-(2-aminopyridin-4-yl)-1H-indazol-7-yl)-2-methylbut-3-yn-2-ol] | 39 |

More lines, now with the values ahead:

| IC50 [nM] | SMILES |
| --- | --- |
| 1 | CC(C)(C)C#Cc1c(-c2ccc3[nH]nc(N)c3c2)ccnc1N [Example 72, 5-(2-Amino-3-(3,3-dimethylbut-1-yn-1-yl)pyridine-4-yl)-1H-indazol-3-amine] |
| 2 | Nc1nccc(-c2ccc3[nH]nc(N)c3c2)c1C#CC1CCCC1 [Example 73, 5-(2-Amino-3-(cyclopentylethynyl)pyridine-4-yl)-1H-indazol-3-amine] |
| 3 | Nc1nccc(-c2ccc3[nH]nc(N)c3c2)c1C#CC1CCCCC1 [Example 74, 5-(2-Amino-3-(cyclohexylethynyl)pyridine-4-yl)-1H-indazol-3-amine] |
| 1 | Nc1nccc(-c2ccc3[nH]nc(N)c3c2)c1C#Cc1ccccc1 [Example 75, 5-(2-Amino-3-(phenylethynyl)pyridine-4-yl)-1H-indazol-3-amine] |
| 1 | Nc1nccc(-c2ccc3[nH]nc(N)c3c2)c1C#CCO [Example 83, 3-(2-Amino-4-(3-amino-1H-indazol-5-yl)pyridine-3-yl)prop-2-yn-1-ol] |
| 1 | Nc1nccc(-c2ccc3[nH]nc(N)c3c2)c1C#CCCO [Example 84, 4-(2-Amino-4-(3-amino-1H-indazol-5-yl)pyridine-3-yl)but-3-yn-1-ol] |
| 1 | Nc1nccc(-c2ccc3[nH]nc(N)c3c2)c1C#CCCCO [Example 85, 5-(2-Amino-4-(3-amino-1H-indazol-5-yl)pyridine-3-yl)pent-4-yn-1-ol] |
| 4 | CC(C)(O)C#Cc1c(-c2ccc3[nH]nc(N)c3c2)ccnc1N [Example 87, 4-(2-Amino-4-(3-amino-1H-indazol-5-yl)pyridine-3-yl)-2-methylbut-3-yn-2-ol] |
| 3 | Nc1nccc(-c2ccc3[nH]nc(N)c3c2)c1C#CC1(O)CCCCC1 [Example 90, 1-((2-Amino-4-(3-amino-1H-indazol-5-yl)pyridine-3-yl)ethynyl)cyclohexan-1-ol] |
| 7 | Nc1nccc(-c2ccc3[nH]nc(N)c3c2)c1C#CC1(O)CCCCCC1 [Example 91, 1-((2-Amino-4-(3-amino-1H-indazol-5-yl)pyridine-3-yl)ethynyl)cycloheptan-1-ol] |
| 6 | CC(C)(N)C#Cc1c(-c2ccc3[nH]nc(N)c3c2)ccnc1N [Example 92, 5-(2-Amino-3-(3-amino-3-methylbut-1-yn-1-yl)pyridin-4-yl)-1H-indazol-3-amine] |
| 7 | Nc1nccc(-c2ccc3[nH]nc(N)c3c2)c1C#CCCN1CCCCC1 [Example 93, 5-(2-Amino-3-(4-(piperidin-1-yl)but-1-yn-1-yl)pyridin-4-yl)-1H-indazol-3-amine] |
| 12 | Nc1nccc(-c2ccc3[nH]nc(N)c3c2)c1C#CCCCN1CCCCC1 [Example 95, 5-(2-Amino-3-(5-(piperidin-1-yl)pent-1-yn-1-yl)pyridin-4-yl)-1H-indazol-3-amine] |
| 21 | Nc1nccc(-c2ccc3[nH]nc(N)c3c2)c1C#CCCCN1CCOCC1 [Example 96, 5-(2-Amino-3-(5-morpholinopent-1-yn-1-yl)pyridin-4-yl)-1H-indazol-3-amine] |
| 3 | Nc1nccc(-c2ccc3[nH]nc(N)c3c2)c1C#CCCC(=O)N1CCOCC1 [Example 99, 5-(2-Amino-4-(3-amino-1H-indazol-5-yl)pyridine-3-yl)-1-morpholinopent-4-yn-1-one] |

Same assay, conditions: Adapta assay (second line of an example)

| SMILES | IC50 [nM] |
| --- | --- |
| C#Cc1cc(-c2ccnc3[nH]ccc23)cc2c(N)n[nH]c12 [Example 200, 7-Ethynyl-5-(1H-pyrrolo[2,3-b]pyridin-4-yl)-1H-indazol-3-amine] | 3.3 |
| CC(C)(C)C#Cc1cc(-c2ccnc3[nH]ccc23)cc2c(N)n[nH]c12 [Example 201, 7-(3,3-Dimethylbut-1-yn-1-yl)-5-(1H-pyrrolo[2,3-b]pyridin-4-yl)-1H-indazol-3-amine] | 11 |
| Nc1n[nH]c2c(C#CC3CC3)cc(-c3ccnc4[nH]ccc34)cc12 [Example 202, 7-(Cyclopropylethynyl)-5-(1H-pyrrolo[2,3-b]pyridin-4-yl)-1H-indazol-3-amine] | 2 |
| CC(C)(O)C#Cc1cc(-c2ccnc3[nH]ccc23)cc2c(N)n[nH]c12 [Example 206, 4-(3-Amino-5-(1H-pyrrolo[2,3-b]pyridin-4-yl)-1H-indazol-7-yl)-2-methylbut-3-yn-2-ol] | 9 |
| Nc1n[nH]c2c(C#CCCCN3CCOCC3)cc(-c3ccnc4[nH]ccc34)cc12 [Example 210, 7-(5-Morpholinopent-1-yn-1-yl)-5-(1H-pyrrolo[2,3-b]pyridin-4-yl)-1H-indazol-3-amine] | 27 |
| Nc1n[nH]c2c(C#CCCCN3CCCCC3)cc(-c3ccnc4[nH]ccc34)cc12 [Example 212, 7-(5-(Piperidin-1-yl)pent-1-yn-1-yl)-5-(1H-pyrrolo[2,3-b]pyridin-4-yl)-1H-indazol-3-amine] | 12 |
| Nc1n[nH]c2ccc(-c3ccnc4[nH]c(C5CC5)cc34)cc12 [Example 218, 5-(2-Cyclopropyl-1H-pyrrolo[2,3-b]pyridin-4-yl)-1H-indazol-3-amine] | 1 |
| CC(C)(C)Cc1cc2c(-c3ccc4[nH]nc(N)c4c3)ccnc2[nH]1 [Example 220, 5-(2-Neopentyl-1H-pyrrolo[2,3-b]pyridin-4-yl)-1H-indazol-3-amine] | 2 |

The remaining lines, values ahead:

| IC50 [nM] | SMILES |
| --- | --- |
| 16 | Nc1n[nH]c2c(C#CC3CCCC3)cc(-c3ccnc4[nH]ccc34)cc12 [Example 203, 7-(Cyclopentylethynyl)-5-(1H-pyrrolo[2,3-b]pyridin-4-yl)-1H-indazol-3-amine] |
| 198 | Nc1n[nH]c2c(C#CC3CCCCC3)cc(-c3ccnc4[nH]ccc34)cc12 [Example 204, 7-(Cyclohexylethynyl)-5-(1H-pyrrolo[2,3-b]pyridin-4-yl)-1H-indazol-3-amine] |
| 14 | Nc1n[nH]c2ccc(-c3ccnc4[nH]c(C5CCCCC5)cc34)cc12 [Example 219, 5-(2-Cyclohexyl-1H-pyrrolo[2,3-b]pyridin-4-yl)-1H-indazol-3-amine] |
| 8 | Nc1n[nH]c2ccc(-c3ccnc4[nH]c(CC5CCCCC5)cc34)cc12 [Example 221, 5-(2-(Cyclohexylmethyl)-1H-pyrrolo[2,3-b]pyridin-4-yl)-1H-indazol-3-amine] |
| 26 | Nc1n[nH]c2ccc(-c3ccnc4[nH]c(CCC5CCCCC5)cc34)cc12 [Example 222, 5-(2-(2-Cyclohexylethyl)-1H-pyrrolo[2,3-b]pyridin-4-yl)-1H-indazol-3-amine] |
